# Laboratory results as given in publication PMC10095747, “Modulatory Effects of Atractylodin and β-Eudesmol on Human Cytochrome P450 Enzymes: Potential Drug-Drug Interactions” (Molecules, 2023).
# Where two headings read alike, the source gives them in different places.
# Legend:
# [1] = test system: mCYP1A2; assay: ex vivo mCYP1A2 protein expression in mouse liver microsomes (western blot); details: daily oral 100 mg/kg body weight
# Description: (§1) Eight-week-old male ICR (Imprinting Control Region) mice weighing 35–40 g were used to investigate the modulatory effects of atractylodin and β-eudesmol on mCYP1A2 and mCYP3A11. The study protocol was approved by the Ethics Committee for Animal Research at Thammasat University (protocol number 016/2020). All animals were obtained from Nomura Siam International Co., Ltd. (Bangkok, Thailand). The animals were acclimatized for one week before the experiments. A total of 36 mice were allocated to three groups (i) control group (3 mice), (ii) atractylodin-treated group, and (iii) β-eudesmol-treated group. For atractylodin and β-eudesmol-treated groups, animals were fed with 100 mg/kg body weight of each compound for 1, 7, 14, and 21 (3 mice for each dose). Experiments were performed under the guidelines for the care and use of laboratory animals in a controlled environment of 12 h dark/light cycle, temperature 22 ± 2 °C, and relative humidity 30–70% at the Thammasat University Animal Center. Animals were observed daily for changes in signs and symptoms by a veterinarian. Mice were allowed access to the food pellets and water ad libitum.
# (§2) Mouse liver samples were cut into small pieces, and the liver microsomes were prepared as described previously. The concentrations of proteins in the microsomes were determined using Pierce™ BCA Protein Assay Kit. mCYP1A2 and mCYP3A11 activities were evaluated based on phenacetin O-deethylation and nifedipine oxidation activities, respectively. The incubation mixture of 500 µL consisted of microsomes, substrate ([…]), and NADPH. […] The final organic solvent concentration in the incubation mixture was not higher than 1%. Each experiment was repeated three times (duplicated each). Determination of the concentrations of metabolites of mCYP1A2 (paracetamol) and mCYP3A11 (dehydronifedipine) in the reaction was performed using HPLC Agilent 1260 Infinity II with mobile gradient phase between methanol and distilled water at an initial ratio of 20:80 (v:v) and UV detection (240 nm). Calibration curves for both CYP450 activities were created over a concentration range of 1–50 µM. Oxidized nifedipine concentrations were determined using HPLC as follows: UV detection at 235 nm with an isocratic mobile phase consisting of methanol and distilled water (70:30, v:v). […] In each analytical batch, quality control (QC) samples were run in duplicate at low, medium, and high concentrations. Acceptance criteria were four out of six QC analyses falling within 100 ± 15% of the nominal values.
# (§3) The microsomal protein concentration for both mCYP1A2 and […] was 25 μg protein per lane. Proteins were denatured by combining equal volumes of liver microsomes with sample buffer (1:19 (v:v) of 2-mercaptoethanol and 2x Laemmle buffer) and heating at 100 °C for 5 min. Proteins were separated using 12% SDS-PAGE according to their size characteristics before being migrated to nitrocellulose blotting membranes.
# [2] = test system: mCYP3A11; assay: ex vivo mCYP3A11 protein expression in mouse liver microsomes (western blot); details: daily oral 100 mg/kg body weight
# Description: as §1, §2, §3
# [3] = biological target: rCYP2C19 (Homo sapiens, UniProt P33261); assay: luminogenic P450-Glo CYP450 inhibition assay, rCYP2C19; details: three independent experiments
# Description: The luminescent cytochrome P450 assay was used to determine CYP450-mediated (CYP1A2, 2C9, 2C19, 2D6, and 3A4) metabolism of atractylodin and β-eudesmol. The assay consisted of each recombinant human CYP450 (rCYP450), control membranes lacking P450 activity, a luminogenic CYP450 substrate (luciferin-ME substrate for rCYP1A2, luciferin-H substrate for rCYP2C9, luciferin-H EGE substrate for rCYP2C19, luciferin-ME EGE substrate for rCYP2D6, and luciferin-IPA substrate for rCYP3A4), KPO4 buffer, luciferin free water, NADPH regeneration system, and a luciferin detection reagent. The rCYP450 enzymes were generated from a baculovirus-infected insect cell expression system. The concentrations of the recombinant CYPs used were 0.5 (rCYP1A2 and rCYP2C9), 0.25 (rCYP2C19 and rCYP2D6) or 0.2 (rCYP3A4) pmol (0.5μL) per reaction. […] A luciferin product was produced after adding 25 µL of NADPH Regeneration System (solution A, solution B, and luciferin-free water) and incubated at 37 °C for 10 (rCYP1A2 and rCYP3A4), 20 (rCYP2C19 and rCYP2C9) or 30 (rCYP2D6) minutes. The reaction was stopped and converted to a luminescent signal after adding Luciferin Detection Reagent (50 µL) and incubated at 25 °C for 20 min. The luminescence signals obtained were determined using a Varioskan® Flash microplate reader (Waltham, MA, USA). The magnitude of luminescence in all of the samples represented CYP450 activity. […] All stock solutions were diluted with luciferin-free water until the final concentration of organic solvent was less than 0.25% (v/v) of the total reaction. The concentration range of atractylodin and β-eudesmol used were 2.74–686 µM and 2.25–562 µM, respectively. […] The concentration that inhibited the activity of each rCYP450 by 50% (IC50) was calculated using Calcusyn software (Cambridge, UK). Data are reported as the median (range) of the three independent experiments.
# [4] = test system: all rCYP450s (rCYP1A2, rCYP2C9, rCYP2C19, rCYP2D6, rCYP3A4); assay: luminogenic CYP450 inhibition assay, statement over all five rCYP450s
# Description: The luminescent cytochrome P450 assay was used to determine CYP450-mediated (CYP1A2, 2C9, 2C19, 2D6, and 3A4) metabolism of atractylodin and β-eudesmol. The assay consisted of each recombinant human CYP450 (rCYP450), control membranes lacking P450 activity, a luminogenic CYP450 substrate (luciferin-ME substrate for rCYP1A2, luciferin-H substrate for rCYP2C9, luciferin-H EGE substrate for rCYP2C19, luciferin-ME EGE substrate for rCYP2D6, and luciferin-IPA substrate for rCYP3A4), KPO4 buffer, luciferin free water, NADPH regeneration system, and a luciferin detection reagent. The rCYP450 enzymes were generated from a baculovirus-infected insect cell expression system. The concentrations of the recombinant CYPs used were 0.5 (rCYP1A2 and rCYP2C9), 0.25 (rCYP2C19 and rCYP2D6) or 0.2 (rCYP3A4) pmol (0.5μL) per reaction. […] A luciferin product was produced after adding 25 µL of NADPH Regeneration System (solution A, solution B, and luciferin-free water) and incubated at 37 °C for 10 (rCYP1A2 and rCYP3A4), 20 (rCYP2C19 and rCYP2C9) or 30 (rCYP2D6) minutes. The reaction was stopped and converted to a luminescent signal after adding Luciferin Detection Reagent (50 µL) and incubated at 25 °C for 20 min. The luminescence signals obtained were determined using a Varioskan® Flash microplate reader (Waltham, MA, USA). The magnitude of luminescence in all of the samples represented CYP450 activity. […]
# [5] = test system: mCYP1A2; assay: ex vivo mCYP1A2 activity in mouse liver microsomes (phenacetin O-deethylation); details: daily oral 100 mg/kg body weight
# Description: Phenacetin and nifedipine are substrates of CYP1A2 and CYP3A11, respectively. Both substrates are converted via the CYP enzyme to paracetamol and dehydronefedipine, respectively. The concentrations of paracetamol and dehydronefedipine were used to determine the activities of mCYP1A2 and mCYP3A11. The effects of atractylodin and β-eudesmol on mCYP1A2 and mCYP3A11 activities were, respectively, determined by measuring paracetamol (mCYP1A2-dependent metabolite) and dehydronifiedipine (mCYP3A11-dependent metabolite) concentrations.
# as §1, §2
# [6] = test system: hCYP3A4; parameters: method as in PMID 35139770; details: ligand-binding difference spectroscopy; cited from earlier work
# [7] = test system: hCYP2C9; parameters: method as in PMID 35139770; details: ligand-binding difference spectroscopy; cited from earlier work
# [8] = test system: hCYP2C19; parameters: method as in PMID 35139770; details: ligand-binding difference spectroscopy; cited from earlier work
# rCYP2C19, sequence (P33261 whole entry): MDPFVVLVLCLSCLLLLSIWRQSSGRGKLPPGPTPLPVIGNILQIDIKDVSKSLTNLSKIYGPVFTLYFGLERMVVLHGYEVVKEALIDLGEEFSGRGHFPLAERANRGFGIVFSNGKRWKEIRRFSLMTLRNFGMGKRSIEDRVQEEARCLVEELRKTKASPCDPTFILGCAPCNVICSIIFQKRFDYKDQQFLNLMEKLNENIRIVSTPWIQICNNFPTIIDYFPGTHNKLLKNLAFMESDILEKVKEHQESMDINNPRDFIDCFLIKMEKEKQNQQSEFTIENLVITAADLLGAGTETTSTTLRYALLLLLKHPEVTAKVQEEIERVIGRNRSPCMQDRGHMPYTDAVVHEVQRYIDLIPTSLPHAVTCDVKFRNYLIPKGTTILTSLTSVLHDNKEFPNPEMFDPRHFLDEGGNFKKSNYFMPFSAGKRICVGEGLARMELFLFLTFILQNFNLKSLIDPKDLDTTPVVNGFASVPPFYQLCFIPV
structure (smiles),measurement,setting,value
C/C=C/C#CC#C/C=C/c1ccco1 [Atractylodin],Protein expression ratio of mCYP1A2,"[1]; 1 day, control 1.5",1.39
same,Protein expression ratio of mCYP1A2,"[1]; 7 days, control 1.88",1.55
same,Protein expression ratio of mCYP1A2,"[1]; 14 days, control 2.42",1.77
same,Protein expression ratio of mCYP1A2,"[1]; 21 days, control 2.20, 100 mg/kg",significantly downregulated
same,Protein expression ratio of mCYP1A2,"[1]; 21 days, control 2.20, listed as Atactylodin, 100 mg/kg",1.33
same,Protein expression ratio of mCYP3A11,"[2]; 1 day, control 1.73",1.82
same,Protein expression ratio of mCYP3A11,"[2]; 7 days, control 1.57, 100 mg/kg",significantly downregulated
same,Protein expression ratio of mCYP3A11,"[2]; 7 days, control 1.57, listed as Atactylodin, 100 mg/kg",1.26
same,Protein expression ratio of mCYP3A11,"[2]; 14 days, control 2.31, 100 mg/kg",significantly downregulated
same,Protein expression ratio of mCYP3A11,"[2]; 14 days, control 2.31, listed as Atactylodin, 100 mg/kg",1.67
same,Protein expression ratio of mCYP3A11,"[2]; 21 days, control 2.18, 100 mg/kg",significantly downregulated
same,Protein expression ratio of mCYP3A11,"[2]; 21 days, control 2.18, listed as Atactylodin, 100 mg/kg",1.41
same,Median IC50 (Range) rCYP2C19,[3]; median (range),>125 µg/mL
same,IC50,"[3]; read-out: Median IC50 (Range) rCYP2C19, median (range)",> 686 µM
same,inhibitory effects on all rCYP450s (potency class),[4],weak (weak (IC50 ≥ 50 µM))
same,Paracetamol concentration (mCYP1A2 activity),"[5]; 1 day, control 11.40, 100 mg/kg",significantly increased
same,Paracetamol concentration (mCYP1A2 activity),"[5]; 1 day, control 11.40, listed as Atactylodin, 100 mg/kg",15.80 µM
same,Paracetamol concentration (mCYP1A2 activity),"[5]; 7 days, control 12.25",12.00 µM
same,Paracetamol concentration (mCYP1A2 activity),"[5]; 14 days, control 12.80",14.50 µM
same,Paracetamol concentration (mCYP1A2 activity),"[5]; 21 days, control 12.90, 100 mg/kg",significant decrease
same,Paracetamol concentration (mCYP1A2 activity),"[5]; 21 days, control 12.90, listed as Atactylodin, 100 mg/kg",10.60 µM
C=C1CCC[C@]2(C)CC[C@@H](C(C)(C)O)C[C@@H]12 [β-Eudesmol],Protein expression ratio of mCYP1A2,"[1]; 1 day, control 1.5",1.06
same,Protein expression ratio of mCYP1A2,"[1]; 7 days, control 1.88",1.83
same,Protein expression ratio of mCYP1A2,"[1]; 14 days, control 2.42",2.05
same,Protein expression ratio of mCYP1A2,"[1]; 21 days, control 2.20, listed as β-eudesmol, 100 mg/kg",significantly downregulated
same,Protein expression ratio of mCYP1A2,"[1]; 21 days, control 2.20, listed as β‐eudesmol, 100 mg/kg",1.00
same,Protein expression ratio of mCYP3A11,"[2]; 1 day, control 1.73",1.50
same,Protein expression ratio of mCYP3A11,"[2]; 7 days, control 1.57",1.62
same,Protein expression ratio of mCYP3A11,"[2]; 14 days, control 2.31, listed as β-eudesmol, 100 mg/kg",significantly downregulated
same,Protein expression ratio of mCYP3A11,"[2]; 14 days, control 2.31, listed as β‐eudesmol, 100 mg/kg",1.60
same,Protein expression ratio of mCYP3A11,"[2]; 21 days, control 2.18, listed as β-eudesmol, 100 mg/kg",significantly downregulated
same,Protein expression ratio of mCYP3A11,"[2]; 21 days, control 2.18, listed as β‐eudesmol, 100 mg/kg",1.42
same,IC50,"[3]; Median IC50 (Range) rCYP2C19, median (range)",173 µM
same,binding to hCYP3A4,[6],bound
same,binding to hCYP2C9,[7],not
same,Paracetamol concentration (mCYP1A2 activity),"[5]; 1 day, control 11.40",12.35 µM
same,Paracetamol concentration (mCYP1A2 activity),"[5]; 7 days, control 12.25",11.80 µM
same,Paracetamol concentration (mCYP1A2 activity),"[5]; 14 days, control 12.80",13.25 µM
same,Paracetamol concentration (mCYP1A2 activity),"[5]; 21 days, control 12.90, listed as β-eudesmol, 100 mg/kg",significantly decreased
same,Paracetamol concentration (mCYP1A2 activity),"[5]; 21 days, control 12.90, listed as β‐eudesmol, 100 mg/kg",8.30 µM
same,binding to hCYP2C19,[8],not
